The results in this text go back to patent US6875761B2 (Eisai Co., Ltd., priority 1997, dated 2005).

Broadly, the melting point is the temperature of the solid-liquid transition.

The structures appear in SMILES notation. Counter-ions that a name gives are not always drawn.

As for `CCN1CCN(c2nc(-c3ccc(CC(C)O)cc3)cc3ccsc23)CC1` (centres unmarked) (as salt: hydrochloride) [Example 436, 7-(4-ethylpiperazin-1-yl)-5-[4-(2-hydroxypropyl)phenyl]thieno[2,3-c]pyridine dihydrochloride], the melting point lay in the range of 66 to 67 °C.
The compound `CCN1CCN(c2nc(-c3ccc(O[C@@H](C)CO)cc3)cc3ccsc23)CC1` (as salt: hydrochloride) [Example 438, 7-(4-ethylpiperazin-1-yl)-5-[4-(1-methyl-2-hydroxyethoxy)phenyl]thieno[2,3-c]pyridine dihydrochloride] came in with a melting point of 126 to 127 °C.
With `CCN1CCN(c2nc(-c3ccc(CCC(C)(C)O)cc3)cc3ccsc23)CC1` (as salt: hydrochloride) [Example 439, 7-(4-ethylpiperazin-1-yl)-5-[4-(3-hydroxy-3-methylbutyl)phenyl]thieno[2,3-c]pyridine dihydrochloride], the melting point was in the range of 122 to 133.5 °C.
As to `CCN1CCN(c2nc(-c3ccc(CCC(C)O)cc3)cc3ccsc23)CC1` (centres unmarked) (as salt: hydrochloride) [Example 440, 7-(4-ethylpiperazin-1-yl)-5-[4-(3-hydroxybutyl)phenyl]thieno[2,3-c]pyridine dihydrochloride], the melting point lay within 110.5 to 112 °C.
`CCN1CCN(c2nc(-c3ccc(CC(C)CO)cc3)cc3ccsc23)CC1` (centres unmarked) (as salt: hydrochloride) [Example 441, 7-(4-ethylpiperazin-1-yl)-5-[4-(3-hydroxy-2-methylpropyl)phenyl]thieno[2,3-c]pyridine dihydrochloride] had a melting point of 108 to 110 °C.
With `CCN1CCN(c2nc(-c3ccc(CC(C)(C)CO)cc3)cc3ccsc23)CC1` (as salt: hydrochloride) [Example 442, 7-(4-ethylpiperazin-1-yl)-5-[4-(3-hydroxy-2,2-dimethylpropyl)phenyl]thieno[2,3-c]pyridine dihydrochloride] the figure was 113 to 114 °C.
In turn, `CCN1CCN(c2nc(-c3ccc(C(C)(C)CCO)cc3)cc3ccsc23)CC1` (as salt: hydrochloride) [Example 443, 7-(4-ethylpiperazin-1-yl)-5-[4-(3-hydroxy-1,1-dimethylpropyl)phenyl]thieno[2,3-c]pyridine dihydrochloride] displayed a melting point of 125.5 to 127.5 °C.
`CCN1CCN(c2nc(-c3ccc(SC[C@@H](C)O)cc3)cc3ccsc23)CC1` (as salt: hydrochloride) [Example 444, 7-(4-ethylpiperazin-1-yl)-5-[4-(2-hydroxypropylthio)phenyl]thieno[2,3-c]pyridine dihydrochloride] registered a melting point of 98.5 to 99.5 °C.
As for `CCN1CCN(c2nc(-c3ccc(S(C)(=O)=O)cc3)cc3ccsc23)CC1` (as salt: hydrochloride) [Example 445, 7-(4-ethylpiperazin-1-yl)-5-(4-methanesulfonylphenyl)thieno)[2,3-c]pyridine dihydrochloride], the figure is 222.5 to 225 °C (dec.); as for `CCCC(O)c1ccc(-c2cc3ccsc3c(N3CCN(CC)CC3)n2)cc1` (centres unmarked) (as salt: hydrochloride) [Example 446, 7-(4-ethylpiperazin-1-yl)-5-[4-(1-hydroxybutyl)phenyl]thieno[2,3-c]pyridine dihydrochloride], 112 to 114 °C; as for `CCNC(=O)c1ccc(-c2cc3ccsc3c(N3CCN(CC)CC3)n2)cc1` (as salt: hydrochloride) [Example 448, 7-(4-ethylpiperazin-1-yl)-5-[4-(N-ethylcarbamoyl)phenyl]thieno[2,3-c]pyridine dihydrochloride], 142 to 143 °C.
In turn, `CCCNC(=O)c1ccc(-c2cc3ccsc3c(N3CCN(CC)CC3)n2)cc1` (as salt: hydrochloride) [Example 449, 7-(4-ethylpiperazin-1-yl)-5-[4-(N-propylcarbamoyl)phenyl]thieno[2,3-c]pyridine dihydrochloride] had a melting point of 136.5 to 138 °C.
Turning to `CCN1CCN(c2nc(-c3ccc(S(=O)(=O)CC)cc3)cc3ccsc23)CC1` (as salt: hydrochloride) [Example 450, 7-(4-ethylpiperazin-1-yl)-5-(4-ethanesulfonylphenyl)thieno[2,3-c]pyridine dihydrochloride], the melting point is 230 to 232 °C (dec.).
Take `CCCCNC(=O)c1ccc(-c2cc3ccsc3c(N3CCN(CC)CC3)n2)cc1` (as salt: hydrochloride) [Example 452, 7-(4-ethylpiperazin-1-yl)-5-[4-(N-butylcarbamoyl)phenyl]thieno[2,3-c]pyridine dihydrochloride]: the melting point is 127.5 to 128 °C.
Compound `CCN1CCN(c2nc(-c3ccc(C(=O)NC4CCCC4)cc3)cc3ccsc23)CC1` (as salt: hydrochloride) [Example 453, 7-(4-ethylpiperazin-1-yl)-5-[4-(N-cyclopentylcarbamoyl)phenyl]thieno[2,3-c]pyridine dihydrochloride] yielded a melting point of 148 to 149 °C.
As to `CCN1CCN(c2nc(-c3ccc4c(c3)CC(C)(CO)O4)cc3ccsc23)CC1` (centres unmarked) (as salt: hydrochloride) [Example 456, dihydrochloride], the melting point was 138 to 140 °C (dec.).
As for `CCN1CCN(c2nc(-c3ccc(C(O)C4CCCCC4)cc3)cc3ccsc23)CC1` (centres unmarked) (as salt: hydrochloride) [Example 457, 7-(4-Ethylpiperazin-1-yl)-5-[4-(cyclohexylhydroxymethyl)phenyl]thieno[2,3-c]pyridine dihydrochloride], the figure is 127.5 to 129 °C; as for `CCN1CCN(c2nc(-c3ccc(C(O)C4CCCC4)cc3)cc3ccsc23)CC1` (centres unmarked) (as salt: hydrochloride) [Example 458, 7-(4-ethylpiperazin-1-yl)-5-[4-(cyclopentylhydroxymethyl)phenyl]thieno[2,3-c]pyridine dihydrochloride], 128 to 129 °C.
Turning to `CCN1CCN(c2nc(-c3ccc(OC)cc3)cc3ccsc23)CC1` (as salt: hydrochloride) [Example 459, 7-(4-ethylpiperazin-1-yl)-5-(4-methoxyphenyl)thieno[2,3-c]pyridine dihydrochloride], the melting point fell in the range of 113 to 115 °C.
Regarding `CCN1CCN(c2nc(-c3ccc(OCCCO)cc3)cc3sccc23)CC1` (as salt: hydrochloride) [Example 462, 4-(4-ethylpiperazin-1-yl)-6-[4-(3-hydroxypropoxy)phenyl]thieno[3,2-c]pyridine dihydrochloride], the melting point fell in the range of 102 to 104 °C.
As to `CCN1CCN(c2nc(-c3ccc(CCCO)cc3)cc3sccc23)CC1` (as salt: hydrochloride) [Example 465, 4-(4-ethylpiperazin-1-yl)-6-[4-(3-hydroxypropy)phenyl]thieno[3,2-c]pyridine dihydrochloride], the melting point is 125.5 to 126.5 °C.
The compound `CCN1CCN(c2nc(-c3ccc(OC)cc3)cc3ccoc23)CC1` (as salt: hydrochloride) [Example 467, 7-(4-ethylpiperazin-1-yl)-5-(4-methoxyphenyl)furo[2,3-c]pyridine dihydrochloride] showed a melting point of 127 to 128 °C.
With `CCN1CCN(c2nc(C(O)c3ccccc3OC)cc3ccccc23)CC1` (centres unmarked) (as salt: oxalate) the figure was 100 to 103 °C; with `CCN1CCN(c2nc(C(C)(O)c3ccc(OC)cc3)cc3ccccc23)CC1` (centres unmarked) (as salt: oxalate), 179 to 181 °C; with `CCN1CCN(c2nc(C3=CCCc4c(OC)cccc43)cc3ccccc23)CC1` (as salt: oxalate), 136 to 139 °C.
For `CCN1CCN(c2nc(C3=CCCc4ccc(OC)cc43)cc3ccccc23)CC1` (as salt: oxalate), the melting point fell in the range of 150 to 153 °C.
With `CCN1CCN(c2nc(C3CCCc4c(OC)cccc43)cc3ccccc23)CC1` (centres unmarked) (as salt: oxalate) the figure was 133 to 136 °C.
The compound `CCN1CCN(c2nc(C3CCCc4cc(OC)ccc43)cc3ccccc23)CC1` (centres unmarked) (as salt: oxalate) came in with a melting point of 170 to 173 °C.
On to `CCN1CCN(c2nc(C3CCCc4ccc(OC)cc43)cc3ccccc23)CC1` (centres unmarked) (as salt: oxalate), for which the melting point was 110 to 112 °C.
On to `CCNS(=O)(=O)c1ccc(-c2cc3ccccc3c(N3CCN(CCO)CC3)n2)cc1` (as salt: oxalate), for which the melting point fell in the range of 172 to 174 °C.
Turning to `CCCS(=O)(=O)c1ccc(-c2cc3ccccc3c(N3CCN(CCO)CC3)n2)cc1` (as salt: oxalate), the melting point is 127 to 129 °C.
As for `CCN1CCN(c2nc(-c3ccc(OC)cc3)cc3occc23)CC1` (as salt: oxalate), the figure is 170 to 172 °C (dec.).
Regarding `CCCC(O)c1ccc(-c2cc3ccccc3c(N3CCN(CC)CC3)n2)cc1` (centres unmarked) (as salt: oxalate) [Example 21, 1-(4-ethylpiperazin-1-yl)-3-[4-(1-hydroxybutyl)phenyl]isoquinoline oxalate], the melting point lay in the range of 198.5 to 199.5 °C.
As for `CCN1CCN(c2nc(-c3ccc(CCC(C)O)cc3)cc3ccccc23)CC1` (centres unmarked) (as salt: oxalate) [Example 22, 1-(4-ethylpiperazin-1-yl)-3-[4-(3-hydroxybutyl)phenyl]isoquinoline oxalate], the melting point is 193 to 194 °C.
Compound `CCN1CCN(c2nc(C(C)c3ccc(OC)cc3)cc3ccccc23)CC1` (stereo not drawn) (as salt: oxalate) [Example 102, 3-[α-Methyl-(4-methoxybenzyl)]-1-(4-ethylpiperazin-1-yl)isoquinoline Oxalate] gave a melting point of 86 to 88 °C.
As for `CCN1CCN(c2nc(C(O)c3ccc(OC)cc3)cc3ccccc23)CC1` (stereo not drawn) (as salt: oxalate) [Example 104, 3-[α-Hydroxy-(4-methoxybenzyl)]-1-(4-ethylpiperazin-1-yl)isoquinoline Oxalate], the figure is 95 to 97 °C; as for `CCN1CCN(c2nc(C(=O)c3ccccc3OC)cc3ccccc23)CC1` (as salt: oxalate) [Example 111, 3-(2-Methoxyphenylcarbonyl)-1-(4-ethylpiperazin-1-yl)isoquinoline Oxalate], 153 to 156 °C; as for `CCN1CCN(c2nc(C(=O)c3ccc(OC)cc3)cc3ccccc23)CC1` (as salt: oxalate) [Example 112, 3-(4-Methoxyphenylcarbonyl)-1-(4-ethylpiperazin-1-yl)isoquinoline Oxalate], 176 to 179 °C.
